In assay [1] the test system is RAW 247.6 macrophage cell line. The assay can be described thus: Detection of PMA-induced superoxide production by macrophages. The following applies: 50 μl of 50 μM Compound 18 (FIG. 6A) or 100 μM Compound 20 (FIG. 6B), 2 hours at 37° C.; for luminescence signal with PMA treatment: 20 μM PMA. The assay is classed as cell-based. How it is done: Production of superoxide by macrophages plays an important role in immune response and inflammation. Superoxide is produced by nicotinamide adenine dinucleotide phosphate (NADPH) oxidases (known as NOX enzymes) and is induced by PMA (4β-phorbol-12-myristate-13-acetate). Here is shown an example of measuring PMA-induced superoxide production in RAW 247.6 macrophage cell line. RAW 247.6 cells were plated overnight in DMEM medium with 10% FBS. To start the experiment, the medium was removed, cells were washed once with PBS, and 50 μl of PBS containing 5 mM glucose, 1 mM MgCl2, 0.5 mM CaCl2, and 0.05% BSA was added to the cells in the presence or absence of 20 μM PMA. To measure production of superoxide, 50 μl of 50 μM Compound 18 (FIG. 6A) or 100 μM Compound 20 (FIG. 6B) was added to the cells. Cells were treated for 2 hours at 37° C. with luciferin production measured by adding equal volume of Luciferin Detection Reagent with esterases, and luminescence read after 20 minutes incubation at room temperature.

A further assay relates to xanthine oxidase. The assay can be described thus: Detection of xanthine oxidase activity in vitro. The assay is classed as biochemical. The following applies: 25 μl of 75 μM probe, FIG. 5. An excerpt:
Xanthine oxidase (XO) is an enzyme that catalyzes the oxidation of hypoxanthine or xanthine to uric acid and superoxide. XO is normally found in liver and jejunum and plays an important role in the catabolism of purines. During severe liver damage, xanthine oxidase is released into blood and can be used as a marker for liver damage. Here is shown an example of measuring xanthine oxidase activity using pro-luciferin compounds described herein. Purified xanthine oxidase was 3× fold serially diluted in 0.1M Tris (pH7.5). 25 μl of diluted enzyme was transferred into wells of a 96-well assay plate, and the reaction was started by adding 25 μl of 300 μM xanthine and 25 μl of 75 μM Compound 20. After 10, 20, 30, and 60 minutes incubations at 37° C., 75 μl of Luciferin Detection Reagent containing esterases was added to the samples, and luminescence was read after additional 20 minutes incubation at room temperature.

Assay [2] deals with RAW 247.6 macrophage cells. The assay can be described thus: Detection of superoxide production in kinetic mode (media sampling). It counts as cell-based. The following applies: 50 μM probe, 20 μM PMA, 10, 20, 30 and 60 minutes, FIG. 7. The method, then: RAW 247.6 macrophage cells were plated at 30,000 cells per well overnight in DMEM medium with 10% FBS. The following day, the medium was removed, and cells were washed with PBS. 100 μl PBS containing 5 mM glucose, 1 mM MgCl2, 0.5mM CaCl2, 0.05% BSA, and 50 μM Compound 20 were added to the cells in the presence or absence of 20 μM PMA. The cells were placed back at 37° C. in tissue culture incubator. At different time points (10, 20, 30 and 60 minutes), 10 μl was removed from the samples, mixed with 10 μl of Luciferin Detection Reagent with esterases, and luminescence read following a 20 minute incubation at room temperature.

A further assay deals with superoxide. The assay can be described thus: Cell-free detection of and specificity for superoxide (luciferase luminescence). It counts as biochemical. Conditions: probe 25 μM in PBS, FIG. 3. The method, then: The superoxide probe, Compound 1 (6-(4-hydroxy-3,5-dimethoxyphenoxy)benzo[d]thiazole-2-carbonitrile), was diluted into PBS to 25 μM into wells of a 96-well white-walled assay plate. Subsequently, generators of reactive oxygen and nitrogen species were diluted in PBS and added to the assay plate. The plate mixed using an orbital plate shaker for 5 minutes followed by a 30-minute incubation at room temperature protected from light. For luciferin detection, the luciferin-utilizing luciferase enzyme, UltraGlo (Promega Corporation), was prepared by mixing Luciferin Detection Reagent (Promega), Reconstitution Buffer (Promega), and d-Cysteine (Promega), and one volume was added to the reaction. The plate was mixed using an orbital plate shaker, and luminescence was measured using a GloMax® luminometer. Data are shown in FIG. 3; the blank includes PBS only; HX=hypoxanthine; XO=xanthine oxidase; and SOD=superoxide dismutase. […] This signal decreased in the presence of superoxide dismutase, confirming that superoxide is the source of the signal.

Assay [3] deals with Human hepatocarcinoma cells (Hep G2). The assay can be described thus: Detection of superoxide in cells. It counts as cell-based. Conditions: probe 12.5 uM, 1 hour at 37° C., FIG. 4. The method, then:
Human hepatocarcinoma cells (Hep G2) were plated into wells of 96-well white-walled assay tissue culture plates. Plated cells were incubated overnight in a humidified tissue culture incubator at 37° C. with 5% CO2. The following day the superoxide probe, Compound 1 (6-(4-hydroxy-3,5-dimethoxyphenoxy)benzo[d]thiazole-2-carbonitrile), was added to the cells in culture medium at a final concentration of 12.5 uM. Subsequently, dimethoxynaphthoquinone (DMNQ; 50 μM) or antimycin A (10 μM) diluted in culture medium was added to the reaction wells and the assay plate(s) were incubated for 1 hour in a humidified tissue culture incubator at 37° C. with 5% C02. For luciferin detection, the luciferin-utilizing luciferase enzyme, UltraGlo (Promega Corporation), was prepared by mixing Luciferin Detection Reagent (Promega), Reconstitution Buffer (Promega), and d-Cysteine (Promega), and one volume was added to the reaction. The plate was mixed using an orbital plate shaker, and luminescence was measured using a GloMax® luminometer.

For the compound `COC(=O)[C@H]1CSC(c2nc3ccc(OC(=O)N(C)CCN(C)C(=O)Oc4ccc(OC(C)=O)c(OC(C)=O)c4)cc3s2)=N1` [Compound 20, (S)-4-(((2-((((2-(4-(methoxycarbonyl)-4,5-dihydrothiazol-2-yl)benzo[d]thiazol-6-yl)oxy)carbonyl)(methyl)amino)ethyl)(methyl)carbamoyl)oxy)-1,2-phenylene diacetate], in assay [1], the “luminescence signal with PMA treatment” value is “increased significantly” and the “luminescence signal in the presence of cells compared to medium only control” value is listed as “higher luminescence signal”. The “increase in luminescence signal versus xanthine oxidase concentration and time” value with xanthine oxidase (300 μM xanthine, 10, 20, 30, and 60 minutes at 37° C.) was “linear with respect to xanthine oxidase concentration and time”. For the same compound, in the assay with xanthine oxidase (25 μl of 300 μM xanthine, serially diluted XO, 37° C.), the “increase in luminescence signal, dependence on substrate” value was “depended on the presence of the xanthine oxidase substrate, xanthine”. Also, the “luminescence signal over time in cells treated with PMA” value in assay [2] is “time dependent increase in signal”.

`CN(CCN(C)C(=O)Oc1ccc2nc(C3=N[C@@H](C(=O)O)CS3)sc2c1)C(=O)Oc1ccc(O)c(O)c1` [Compound 18, (S)-2-(6-(((2-(((3,4-dihydroxyphenoxy)carbonyl)(methyl)amino)ethyl)(methyl)carbamoyl)oxy)benzo[d]thiazol-2-yl)-4,5-dihydrothiazole-4-carboxylic acid]: in assay [1], the “luminescence signal with PMA treatment” value is listed as “increased significantly” and the “luminescence signal in the presence of cells compared to medium only control” value is “higher luminescence signal”.

For the compound `COc1cc(Oc2ccc3nc(C#N)sc3c2)cc(OC)c1O` [Compound 1, 6-(4-hydroxy-3,5-dimethoxyphenoxy)benzo[d]thiazole-2-carbonitrile], in the assay on superoxide (30-minute incubation), the “luminescence signal in the presence of NONOate” value is reported as “Little to no signal”, the “luminescence signal in the presence of Rose Bengal (generates singlet oxygen)” value is listed as “Little to no signal”, the “luminescence signal in the presence of hydrogen peroxide” value was “Little to no signal” and the “luminescence signal in the presence of sodium nitrite” value was “Little to no signal”. Further, in the assay with superoxide (HX + XO + SOD), the “luminescence signal in the presence of superoxide dismutase” value is recorded as “decreased”. The “luminescence signal in the presence of HX and XO” value with superoxide (hypoxanthine + xanthine oxidase (superoxide generator), 30-minute incubation at room temperature) is on record as “strong signal”. Moreover, the “luminescence signal when cells were treated with DMNQ” value in assay [3] (DMNQ 50 μM) is “increase in signal”. Also, the “luminescence signal when cells were treated with antimycin A” value in assay [3] (antimycin A 10 μM) is reported as “increase in signal”.

Values taken from US11802114B2, “Compounds and methods for detection of superoxide” (Promega Corporation, priority 2021, dated 2023).
